Like-named read-outs stand apart in the source and are kept apart here. Positions of bridges follow the written chain, without caps; N, C: chain ends. Residues, ends and D or L forms follow the SMILES beside them. Chains are numbered I, II in the order given. No end group written: not given here.

Experiment [1] has as its target T1, PIG-tailed EPO-R (Homo sapiens, UniProt P19235).
T1 construct: comprised the extracellular domain of the EPO-receptor and was produced in recombinant host cells; thrombin cleavage site (internal); made in house
T1 sequence (P19235 25-250 limits assumed): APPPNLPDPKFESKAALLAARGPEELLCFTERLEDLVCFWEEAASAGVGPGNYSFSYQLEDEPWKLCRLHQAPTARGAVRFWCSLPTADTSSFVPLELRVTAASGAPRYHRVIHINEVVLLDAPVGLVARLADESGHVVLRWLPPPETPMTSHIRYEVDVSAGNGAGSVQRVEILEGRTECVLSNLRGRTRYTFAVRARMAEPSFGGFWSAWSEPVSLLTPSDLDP
The experiment in a line: radioligand competition binding assay against PIG-tailed EPO-R immobilized on mAb179. From the text: The immobilized receptor used in the panning and ELISA procedures comprised the extracellular domain of the EPO-receptor and was produced in recombinant host cells. This receptor molecule can be produced in a variety of different forms and host cells. One useful form is constructed with a signal peptide for protein secretion and for glycophospholipid membrane anchor attachment (this form of anchor attachment is called "PIG-tailing;" see, Caras and Weddell, 3 March. 1989, Science 243:1196-1198; and Lin et al., 10 Aug. 1990, Science 249:677-679, each of which is incorporated herein by reference). This system allows for cleavage of the receptor from the surface of the cells expressing the receptor and collection of the cleaved receptor quite easily. Preferably, a protease cleavage site, such as a thrombin cleavage site, is inserted between the HPAP epitope of the PIG-tailed receptor and the receptor itself.
The recombinant receptor protein was immobilized using the following methodology. Microtiter plates were coated within an and-receptor antibody and the wells which were to contain the immobilized receptor were treated with bovine serum albumin (BSA) to block non-specific binding. The PIG-tailed receptor having a thrombin cleavage site was added to the coated wells of the microtiter plate, which were then washed to remove unbound receptor.
IC50s were calculated for several of the peptides falling within the general motifs described above. (Each of these peptides were independently synthesized and are C-terminally amidated, but could be easily prepared as the free carboxy acid or as an ester or other carboxy amide.)
This peptide was incubated with streptavidin in PBS at a 4:1 molar ratio at room temperature for one hour. Following this, the complex was introduced into the PIG-tailed EPO-R binding assay for IC50 determination. Peptide that had not been complexed to streptavidin was also run in the same experiment. […] Since this comparison was made using the free peptide concentrations and not the effective complex concentration (theoretically 4-fold lower), the effect will be even greater.
Figures 13 and 14 show the in vitro EPOR binding and biological activities of the dimer. The affinity of the dimer was tested against the PIG-tailed EPOR immobilized on mAb179 in strip wells.

Experiment [2] has as its system FDCP-1/hEPO-R. To be noted: for increase in potency over the parental peptide: EC50 of dimer vs GGTYSCHFGPLTWVCKPQGG
The method, then:
One assay utilized FDCP-1, a growth factor dependent murine multi-potential primitive hematopoietic progenitor cell line (see, e.g.. Dexter et al. (1980) J. Exp. Med. 152:1036-1047), as the parental cell line. This cell line can proliferate, but not differentiate, when supplemented with WEHI3-conditioned media (a medium that contains IL-3, ATCC number T1B68).
In brief, the cells are grown to half stationary density in the presence of the necessary growth factors. The cells are then washed in PBS and starved for 16-24 hours in whole media without the growth factors. After determining the viability of the cells, stock solutions (in whole media without the growth factors) are made to give about 10^5 cells per 50 microliters. […] Cells (50 microliters) are added to each well and the cells are incubated 24-48 hours, at which point the negative controls should die or be quiescent. Cell proliferation is then measured by techniques known in the art, such as an MTT assay which correlates with ^3H-thymidine incorporation as an indication of cell proliferation (see, Mosmann (1983) J. Immunol. Methods 65:55).
In addition, this peptide was preincubated with streptavidin in serum-free HEPES-buffered RPMI at a 4:1 molar ratio, as above. The complex was tested for stimulation of cell proliferation in an FDCP-1/hEPO-R bioassay alongside free […] (Ahx-biotin)) and the unbiotinylated parental peptide, i.e., […].

Experiment [3] has as its target T2, extracellular domain of the human erythropoietin receptor (EPO binding protein, EBP) (Homo sapiens, UniProt P19235).
T2 construct: made in house
T2 sequence (P19235 25-250 limits assumed): T1 sequence (P19235 25-250 limits assumed)
The experiment in a line: immobilized EBP based [125I]EPO competition binding assay. As to the method: The mixture was rocked gently for 30 minutes at room temperature, and the beads were allowed to settle for 1 hour at room temperature. The supernatant was removed and retained, and the beads were washed twice with 20 ml of coupling buffer.
Competitive binding analysis assays of candidate peptides were performed as outlined below. Individual peptides were dissolved in DMSO to prepare a stock solution of 1 mM. […] Initial assay points with no added peptide were included in each assay to determine total binding. Binding mixtures were incubated overnight at room temperature with gentle rocking. The beads were then collected using Micro-columns (Isolab, Inc., Akron, Ohio) and washed with 3 mL of wash buffer.

For experiment [4], the system named is FDC-P1/ER (murine receptor). The experiment is described as follows: peptide dependent growth of EPO-responsive cell line FDC-P1/ER (thymidine incorporation). The experiment is classed as cell-based. The method, then: • a. […] Cell Proliferation Assay: • i. […] Peptide is added to each well in triplicate.
The subject of experiment [5] is Female BDF1 mice. The experiment is described as follows: polycythemic exhypoxic mouse bioassay. To be noted: approximate equivalency. The experiment is classed as in vivo. As to the method: Female BDF1 mice (18-20 gms) are subjected to a conditioning cycle (in hypobaric chambers) of 18 hrs. at 0.40 ± 0.02 atm. and 6 hrs. at ambien pressure for a period of 14 days.
Mice are maintained at ambient pressure for 72 hrs prior to administration of r-HuEPO or test samples. Test samples or r-HuEPO standard are diluted for injection into conditioned mice. The vehicle consists of: PBS containing 0.1 % BSA (w/v). For each dilution, 0.5 ml is administered subcutaneously into each of 10 mice. ^59Fe is administered 48 hrs. later. Blood samples are taken 48 hrs. following administration of ^59Fe. Hematocrits and radioactivity measurements are determined for each sample. Dose range and results (two different assays) are set forth in Table 23 and Figures 17A-17C, infra.

The mark [6] stands for this setting: free peptide, C-terminally amidated, read-out: IC50.

For `CSCC[C@@H]1NC(=O)[C@H](CCCNC(=N)N)NC(=O)[C@@H](NC(=O)[C@H](Cc2c[nH]cn2)NC(=O)[C@H](Cc2ccc(O)cc2)NC(=O)[C@H](CC(=O)O)NC(=O)CNC(=O)CN)CSSC[C@@H](C(=O)N[C@@H](CCCCN)C(=O)N2CCC[C@H]2C(=O)N[C@@H](CC(C)C)C(=O)NCC(=O)NCC(N)=O)NC(=O)[C@H](C(C)C)NC(=O)[C@H](Cc2c[nH]c3ccccc23)NC(=O)[C@H]([C@@H](C)O)NC(=O)[C@H](CC(C)C)NC(=O)[C@@H]2CCCN2C(=O)CNC1=O` (HELM PEPTIDE1{G.G.D.Y.H.C.R.M.G.P.L.T.W.V.C.K.P.L.G.G.[am]}$PEPTIDE1,PEPTIDE1,6:R3-15:R3$$$V2.0; N-terminus assumed), the IC50 in experiment [1] (setting [6]) worked out at 179 nM.

For the molecule `CC(C)C[C@H](NC(=O)CNC(=O)CN)C(=O)N[C@@H](Cc1ccc(O)cc1)C(=O)N[C@@H](CC(C)C)C(=O)N[C@H]1CSSC[C@@H](C(=O)NCC(=O)N[C@@H](Cc2ccc(O)cc2)C(=O)N[C@@H](CCCCN)C(=O)NCC(=O)NCC(N)=O)NC(=O)[C@H](CC(=O)O)NC(=O)[C@H](Cc2c[nH]c3ccccc23)NC(=O)[C@H]([C@@H](C)O)NC(=O)[C@H](C(C)C)NC(=O)[C@@H]2CCCN2C(=O)CNC(=O)[C@H](Cc2ccccc2)NC(=O)[C@H](CCCNC(=N)N)NC1=O` (HELM PEPTIDE1{G.G.L.Y.L.C.R.F.G.P.V.T.W.D.C.G.Y.K.G.G.[am]}$PEPTIDE1,PEPTIDE1,6:R3-15:R3$$$V2.0; N-terminus assumed), the IC50 in experiment [1] (setting [6]) was 1670 nM.

For `CC[C@H](C)[C@@H]1NC(=O)[C@@H]2CCCN2C(=O)CNC(=O)[C@H](CCSC)NC(=O)[C@H](CCCNC(=N)N)NC(=O)[C@@H](NC(=O)[C@H](C)NC(=O)[C@H](Cc2ccc(O)cc2)NC(=O)[C@@H](NC(=O)CNC(=O)CN)C(C)C)CSSC[C@@H](C(=O)N[C@@H](CO)C(=O)N2CCC[C@H]2C(=O)N[C@@H](CC(C)C)C(=O)NCC(=O)NCC(N)=O)NC(=O)[C@H](C(C)C)NC(=O)[C@H](Cc2c[nH]c3ccccc23)NC(=O)[C@H]([C@@H](C)O)NC1=O` (HELM PEPTIDE1{G.G.V.Y.A.C.R.M.G.P.I.T.W.V.C.S.P.L.G.G.[am]}$PEPTIDE1,PEPTIDE1,6:R3-15:R3$$$V2.0; N-terminus assumed), the IC50 in experiment [1] (setting [6]) amounted to 352 nM.

Turning to `CC[C@H](C)[C@@H]1NC(=O)[C@@H]2CCCN2C(=O)CNC(=O)[C@H](Cc2ccccc2)NC(=O)[C@H](Cc2c[nH]cn2)NC(=O)[C@@H](NC(=O)[C@H](CCSC)NC(=O)[C@H](Cc2ccc(O)cc2)NC(=O)[C@H](CC(N)=O)NC(=O)CNC(=O)[C@@H](N)C(C)C)CSSC[C@@H](C(=O)N[C@@H](CCCNC(=N)N)C(=O)N2CCC[C@H]2C(=O)NCC(=O)NCC(=O)NCC(N)=O)NC(=O)[C@H](C(C)C)NC(=O)[C@H](Cc2c[nH]c3ccccc23)NC(=O)[C@H]([C@@H](C)O)NC1=O` (HELM PEPTIDE1{V.G.N.Y.M.C.H.F.G.P.I.T.W.V.C.R.P.G.G.G.[am]}$PEPTIDE1,PEPTIDE1,6:R3-15:R3$$$V2.0; N-terminus assumed), the IC50 in experiment [1] (setting [6]) came to 420 nM.

Take `CC(C)C[C@@H]1NC(=O)[C@@H]2CCCN2C(=O)CNC(=O)[C@H](Cc2ccccc2)NC(=O)[C@H](Cc2c[nH]cn2)NC(=O)[C@@H](NC(=O)[C@H](CO)NC(=O)[C@H](Cc2ccc(O)cc2)NC(=O)[C@@H](NC(=O)CNC(=O)CN)[C@@H](C)O)CSSC[C@@H](C(=O)N[C@@H](CCCCN)C(=O)N2CCC[C@H]2C(=O)N[C@@H](CCC(N)=O)C(=O)NCC(=O)NCC(=O)N[C@@H](CO)C(=O)N[C@@H](CO)C(=O)N[C@@H](CCCCNC(=O)CCCCCNC(=O)CCCC[C@@H]2SC[C@@H]3NC(=O)N[C@@H]32)C(N)=O)NC(=O)[C@H](C(C)C)NC(=O)[C@H](Cc2c[nH]c3ccccc23)NC(=O)[C@H]([C@@H](C)O)NC1=O` [AF11505] (HELM PEPTIDE1{G.G.T.Y.S.C.H.F.G.P.L.T.W.V.C.K.P.Q.G.G.S.S.K.[am]}|PEPTIDE2{[O=C1N[C@H]2[C@H](CS[C@H]2CCCCC(=O)[*:2])N1].[O=C(CCCCCN[*:1])[*:2]]}$PEPTIDE1,PEPTIDE2,23:R3-2:R2|PEPTIDE1,PEPTIDE1,6:R3-15:R3$$$V2.0; N-terminus and C-terminus assumed; bridges inferred): the EPO-ED50 result in experiment [2] (free peptides) is on record as “approximately 1 µM”.

`CC(C)C[C@@H]1NC(=O)[C@@H]2CCCN2C(=O)CNC(=O)[C@H](Cc2ccccc2)NC(=O)[C@H](Cc2c[nH]cn2)NC(=O)[C@@H](NC(=O)[C@H](CO)NC(=O)[C@H](Cc2ccc(O)cc2)NC(=O)[C@@H](NC(=O)CNC(=O)CN)[C@@H](C)O)CSSC[C@@H](C(=O)N[C@@H](CCCCN)C(=O)N2CCC[C@H]2C(=O)N[C@@H](CCC(N)=O)C(=O)NCC(=O)NCC(N)=O)NC(=O)[C@H](C(C)C)NC(=O)[C@H](Cc2c[nH]c3ccccc23)NC(=O)[C@H]([C@@H](C)O)NC1=O` [RWJ 61233] (HELM PEPTIDE1{G.G.T.Y.S.C.H.F.G.P.L.T.W.V.C.K.P.Q.G.G.[am]}$PEPTIDE1,PEPTIDE1,6:R3-15:R3$$$V2.0) returned an EC50 in experiment [2] of 400 nM. Moreover, the IC50 in experiment [1] (equilibrium competition binding assay, strip wells, read-out: affinity) came to 200 nM; in experiment [1] (setting [6]), 237 nM; in experiment [3], 5000 nM. Also, in experiment [4], the EPO-ED50 is 100 nM.

As for “I: GGTYSCHFGPLTWVCKPQGGK-NH2 / II: GGTYSCHFGPLTWVCKPQGG (disulfide I:6-I:15, II:6-II:15 (inferred); amide I:21-II:C (inferred); C-terminus assumed) [AF12080]”, in experiment [5], the “Amount of Peptide Equivalent to 0.025 units of EPO” value came out at 0.035 nmol. The “increase in potency over the parental peptide” value in experiment [2] is recorded as “approximately 20 fold”; in experiment [2] (listed as dimeric peptide analog of GGTYSCHFGPLTWVCKPQGG), 20 fold. The “increase over the value for the parental peptide” value in experiment [1] (affinity vs GGTYSCHFGPLTWVCKPQGG) is 200 fold. For the same molecule, in experiment [1] (affinity vs GGTYSCHFGPLTWVCKPQGGSSK (Ahx-biotin)-streptavidin complex), the “increase over the streptavidin complex” value was determined as 5 fold.

In the case of TIAQYICYMGPETWECRPSPKA [AF11654], in experiment [5], the “Amount of Peptide Equivalent to 0.025 units of EPO” value fell in the range of 11 to 21 nmol.

VGNYMAHMGPITWVCRPGG-NH2: the IC50 in experiment [1] (setting [6]) amounted to 67000 nM.
